The test system of this series is Zucker Diabetic Fatty rat (ZDF). The series is described as follows: In vivo preventive study of renal function in the Zucker Diabetic Fatty rat model of diabetic nephropathy. The source says:
The compound 1,3 Propanedisulfonic Acid Disodium Salt (PDS) was selected for a preventive study of renal function in the Zucker rat (ZDF) mode.
A leading study model for DN is the inbred Zucker Diabetic Fatty rat (ZDF). Given a diabetogenic diet, the ZDF rat will closely mimic human adult onset diabetes (Type 2) and related complications including glomerulosclerosis and renal damage earlier than when fed a normal diet (i.e. 14-18 weeks of age). In addition, obesity, mild hypertension, hypertriglyceridemia, hypercholesterolemia, fasting hyperglycemia, impaired glucose tolerance and hyperinsulinemia, are all major phenotypes featured in the ZDF rat.
This pre-clinical investigation evaluates the role and efficacy of 1,3 Propanedisulfonic Acid Disodium Salt (PDS) (Eprodisate Disodium) as a preventive treatment for DN and related pathophysiology in the ZDF rat model. The primary measured outcome is the attenuation/reversal of creatinine clearance deterioration and of proteinuria. The secondary measured outcome is the impact on the metabolic status in this model.
Thirty-two, 6 week-old male ZDF rats (Charles River, St. Constant, Canada) were randomized in 2 groups, Treated (PDS; in 1% sucrose drinking solution) and Control (1% sucrose drinking solution), and studied for a period of 8 weeks. […] All rats were fed a high sucrose/high fat diabetogenic diet (Harlan™ TD95217). Body weight, food and drinking solution consumption were measured on a daily basis. Twelve rats from each group were individually housed in metabolic cages for a period of 24 hours once a week. During week 2, 3, 4 and 5, rats placed in metabolic cages received drinking solution but were placed in fasting condition, whereas during weeks 1, […], 6, 7, and 8, rats were given ad libitum access to food and drinking solution. At the end of each metabolic cage session, urine output was measured, and blood and urine samples were collected in order to quantify serum and/or urine levels of PDS, creatinine, protein, uric acid, triglycerides, glucose, and electrolytes. These variables were used to calculate creatinine clearance (CCr) and proteinuria, and to evaluate general metabolic and renal health status.
Results for each time point are represented as mean±SE. Trend statistics are calculated by repeated measures ANOVA, with p<0.02 considered statistically significant.

Where [1] appears, read: preliminary evaluation, rats sacrificed at about 9 weeks of treatment, not shown.

We go through 1 compound from patent US8372886B2, “Treatment of renal disorders, diabetic nephropathy and dyslipidemias” (Kiacta Sarl, priority 2005, dated 2013).

For the compound `O=S(=O)([O-])CCCS(=O)(=O)[O-].[Na+].[Na+]` [PDS, 1,3 Propanedisulfonic Acid Disodium Salt], for the setting “ZDF rats, summary statement of the study”, the “uric acid serum levels” value was “reduction of uric acid serum levels”. For the same compound, under “male ZDF rats, PDS in 1% sucrose drinking solution, adjusted higher dose, satient condition”, the tolerability entry is reported as “well tolerated”. Also, for the setting “male ZDF rats, satient condition, after 8 weeks of treatment, p=0.0067, FIGS. 3A and 3B”, the “serum triglyceride levels versus Control animals” value is given as “reduced serum triglyceride levels”. For the setting “male ZDF rats, satient condition, after 8 weeks of treatment, p=0.012, FIGS. 2A and 2B”, the “degree of decline of creatinine clearance normalized over body weight (CCr/BW) versus Control animals” value is on record as “significantly lowered the degree of decline”. Further, the “uric acid clearance, effect of treatment over the study” value (male ZDF rats, satient condition, over 8 weeks, FIG. 4A) is listed as “trend in the positive effect”. Also, where the note is “male ZDF rats, satient condition, week 8, FIG. 4B”, the “uric acid clearance compared to the control group at week 8” value is recorded as “significant difference compared to the control group”. Under setting [1], the “kidney mass versus control rats” value is “greater kidney mass than control rats” and the “mass of the heart ventricles versus control rats” value was “slightly lower ventricular mass”.
